The source of these data is PubChem BioAssay AID1645861 (Buhrlage Lab, Dana-Farber Cancer Institute and Novartis …, 2021).

The source made the active and inactive calls.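 Rule for the calls: active = compounds whose peak USP7 inhibition across the dose series reached 30% or more; inactive = the rest.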 Bounds are passed on as bounds.

By IC50 is commonly meant the concentration needed to halve the response being measured.

In this experiment the target is Ubiquitin carboxyl-terminal hydrolase 7 (Homo sapiens) (UniProt Q93009). The experiment is described as follows: Ubiquitin-specific protease 7 DUB inhibitors, concentration-effect, biochemical, validation of primary hits (AID 1645861). As to conditions: purified USP7, Ub-rhodamine cleavage fluorescence, 60 min.
Sequence of Ubiquitin carboxyl-terminal hydrolase 7 (Homo sapiens) (Q93009 whole entry, looked up): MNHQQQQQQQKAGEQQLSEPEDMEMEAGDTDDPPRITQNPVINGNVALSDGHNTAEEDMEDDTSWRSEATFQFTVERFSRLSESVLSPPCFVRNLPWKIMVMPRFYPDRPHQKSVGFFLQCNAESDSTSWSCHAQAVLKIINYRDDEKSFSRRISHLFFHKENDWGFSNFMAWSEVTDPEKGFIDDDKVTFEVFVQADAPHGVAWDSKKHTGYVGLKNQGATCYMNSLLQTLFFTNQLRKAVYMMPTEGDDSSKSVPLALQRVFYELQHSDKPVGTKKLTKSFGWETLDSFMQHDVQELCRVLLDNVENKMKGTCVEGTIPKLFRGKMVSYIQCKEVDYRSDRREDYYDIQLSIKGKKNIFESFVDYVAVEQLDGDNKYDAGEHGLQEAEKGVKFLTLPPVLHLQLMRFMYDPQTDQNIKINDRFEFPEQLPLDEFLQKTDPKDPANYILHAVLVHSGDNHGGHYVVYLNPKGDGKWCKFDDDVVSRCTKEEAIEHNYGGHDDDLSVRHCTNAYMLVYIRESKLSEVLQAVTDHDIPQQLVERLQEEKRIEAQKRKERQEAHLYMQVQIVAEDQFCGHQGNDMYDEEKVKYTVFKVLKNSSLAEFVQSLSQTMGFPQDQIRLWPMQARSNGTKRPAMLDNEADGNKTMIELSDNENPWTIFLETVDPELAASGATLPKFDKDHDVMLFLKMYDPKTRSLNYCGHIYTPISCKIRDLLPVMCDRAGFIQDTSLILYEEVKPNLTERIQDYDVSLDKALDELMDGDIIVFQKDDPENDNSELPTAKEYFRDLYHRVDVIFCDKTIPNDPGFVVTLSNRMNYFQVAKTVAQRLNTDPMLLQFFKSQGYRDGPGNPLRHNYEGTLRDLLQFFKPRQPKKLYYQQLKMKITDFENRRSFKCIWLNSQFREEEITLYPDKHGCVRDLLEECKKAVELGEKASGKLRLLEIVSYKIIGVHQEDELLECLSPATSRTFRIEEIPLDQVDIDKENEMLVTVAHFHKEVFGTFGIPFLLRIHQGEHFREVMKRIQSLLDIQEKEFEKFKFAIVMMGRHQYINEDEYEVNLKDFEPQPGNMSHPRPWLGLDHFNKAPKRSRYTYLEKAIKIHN
Take `O=S(=O)(Nc1ccc(Oc2ncnc3cc(Cl)ccc23)nc1)c1ccc(S(=O)(=O)c2ccccc2)s1`: the IC50 was 49.6 µM.
The same measure for `COc1ccccc1CNC(=O)CCCCn1c(=O)c2ccccc2n(Cc2ccc(C)cc2)c1=O`: > 50 µM (inactive); for `COc1ccccc1-c1nc(-c2cn(-c3cccc(Cl)c3)nn2)no1`: 28.9 µM.
The same measure for `O=C(Cn1c(=O)n(Cc2ccccc2)c(=O)c2ncccc21)NCc1ccccc1Cl`: 43.6 µM.
The same measure for `Cc1[nH]nc(NC(=O)C2COc3ccccc3O2)c1-c1ccccc1` (centres undefined): > 50 µM (inactive); for `COc1ccc(OC)c(NC(=O)Cn2c(=O)n(C3CCCCC3)c(=O)c3ccccc32)c1`: > 50 µM (inactive).
Take `COc1cc2c(cc1OC)-c1cc(Nc3ccc(Br)cc3)nc(=O)n1CC2`: the IC50 was > 50 µM (inactive).
The same measure for `O=C1c2ccccc2C(=O)c2c(O)c(O)cc(O)c21`: 45.6 µM; for `CCCCN1Cc2sc(NC(=O)Nc3ccccc3C)nc2C1=O`: > 50 µM (inactive).
In the case of `O=C(NCc1ccc2c(c1)OCO2)c1cc2c(s1)CCC2` it was > 50 µM (inactive); in that of `Cc1ccc2[nH]c(=O)c(-c3nc4ccc(C)cn4c3NCc3ccc(F)cc3)cc2c1`, 24.6 µM.
For the compound `O=C1CSC(c2ccc3c(c2)OCO3)c2c(n(C3CCCCCC3)[nH]c2=O)N1` (centres undefined), the IC50 was > 50 µM (inactive).
Regarding `COc1ccccc1CNC(=O)CCCCn1c(=O)c2ccccc2n(CC(=O)Nc2ccc(C)cc2C)c1=O`, the IC50 was > 50 µM (inactive).
For the compound `COc1ccccc1NC(=O)c1nc(-c2cn(-c3cccc(F)c3)nn2)no1`, the IC50 is > 50 µM (inactive).
In the case of `Cc1ccc(Cn2c(=O)c3ncccc3n(CC(=O)NCc3ccc(F)cc3)c2=O)cc1` it was > 50 µM (inactive).
With `O=C1c2ccccc2-c2nnc(-c3ccncc3)cc21`, the IC50 was > 50 µM (inactive).
In the case of `CC(C)(C)C(=O)[C@@H]1[C@@H](C(=O)c2ccc3c(c2)OCO3)[C@@]2(C(=O)Nc3ccccc32)[C@H]2c3ccccc3C=CN12` it was > 50 µM (inactive); in that of `CCc1nc(SCC(=O)Nc2cc(Cl)ccc2C)c2oc3ccccc3c2n1`, > 50 µM (inactive); in that of `CC(OC(=O)c1cc(S(=O)(=O)Nc2ccccc2F)ccc1Cl)C(=O)Nc1ccc([N+](=O)[O-])cc1C(F)(F)F` (centres undefined), > 50 µM (inactive).
For `O=C(CSc1nc2c(cnn2-c2ccccc2)c(=O)[nH]1)Nc1ccc(Cl)cc1F`, the IC50 was > 50 µM (inactive).
In the case of `Cc1ccc(CNC(=O)CCCn2c(=O)c3sccc3n(CC(=O)OCc3ccccc3)c2=O)cc1` it was > 50 µM (inactive); in that of `COc1cc(OC)c(NC(=O)c2cc(-c3ccccn3)n[nH]2)cc1Cl`, > 50 µM (inactive).
For the compound `O=C(Cn1c(=O)n(Cc2ccc3c(c2)OCO3)c(=O)c2ccccc21)NCc1ccco1`, the IC50 is > 50 µM (inactive).
In the case of `CC(C)=CCC(O)C1=CC(=O)c2c(O)ccc(O)c2C1=O` (centres undefined) it was 9.02 µM; in that of `CC(=O)Nc1ccc(NC(=O)c2ccc3c(c2)CC(c2ccccc2)OC3=O)cc1` (centres undefined), > 50 µM (inactive); in that of `O=c1[nH]c(C2CCN(S(=O)(=O)c3ccc(S(=O)(=O)NC4CCCC4)cc3)CC2)nc2c1nnn2Cc1cccc(Cl)c1`, > 50 µM (inactive).
In the case of `CCOc1ccc2c(c1)c(=O)c(C(=O)c1ccccc1)cn2CC(=O)Nc1ccc(Cl)cc1`, the IC50 is 41.6 µM.
As to `COc1cc(Cl)c(NC(=O)C2Cc3ccccc3N2C(=O)c2ccccc2)c(OC)c1` (centres undefined), the IC50 was > 50 µM (inactive).
As to `O=C(CSc1nnc2c3ccccc3nc(-c3ccco3)n12)N1CCCc2ccccc21`, the IC50 was > 50 µM (inactive).
The same measure for `O=C(NC(Cc1ccccc1)c1nc2ccccc2[nH]1)C1CC1` (centres undefined): > 50 µM (inactive).
For the compound `O=C(OC1CSc2nc3ccccc3n2C1)c1ccc([N+](=O)[O-])o1` (centres undefined), the IC50 is > 50 µM (inactive).
The same measure for `Cc1cc(C(=O)NC2(O)C(=O)c3ccccc3C2=O)n(C)n1`: > 50 µM (inactive); for `Cc1cccc(C)c1NC(=O)CN1C(=O)CC(c2ccccc2)=Nc2ccccc21`: > 50 µM (inactive).
For the compound `CCc1ccc(NC(=O)C(C)OC(=O)/C=C/c2ccc(S(=O)(=O)Nc3cccc(S(N)(=O)=O)c3)cc2)cc1` (centres undefined), the IC50 was > 50 µM (inactive).
The same measure for `O=C(O)CCCCCN1C(=O)CC(c2ccc(Cl)cc2)CC1=O`: > 50 µM (inactive); for `NS(=O)(=O)c1cccc(NC(=O)/C=C/c2cn(-c3ccccc3)nc2-c2cccc([N+](=O)[O-])c2)c1`: > 50 µM (inactive); for `O=c1[nH]c(C2CCN(S(=O)(=O)c3ccc(S(=O)(=O)NC4CC4)cc3)CC2)nc2c1nnn2Cc1c(Cl)cccc1Cl`: > 50 µM (inactive).
As to `CCOc1ccc2cc3c(nc2c1)OC(=O)N(Cc1ccc(OC)cc1)C3`, the IC50 was > 50 µM (inactive).
In the case of `CC(C)[C@H]1CC[C@@]2(CO2)[C@H]2C(=O)OCC(C(=O)O)=C[C@H]12` it was > 50 µM (inactive); in that of `COC(=O)c1ccccc1NC(=O)Cn1c(=O)n(CCCC(=O)NCc2ccco2)c(=O)c2ccccc21`, > 50 µM (inactive).
In the case of `COc1cccc(NC(=O)Cn2cc(C(=O)c3ccc(C)cc3)c(=O)c3cc(Cl)ccc32)c1` it was > 50 µM (inactive); in that of `CCOc1ccc(-n2c(=O)c3sccc3n(CC(=O)Nc3cccc(C)c3)c2=O)cc1`, > 50 µM (inactive); in that of `O=c1c(S(=O)(=O)c2cc(F)cc(F)c2)c[nH]c2cc(Cl)ccc12`, > 50 µM (inactive).
Consider `Nc1ccc2oc(-c3cccc(-c4nc5cc(N)ccc5o4)n3)nc2c1`, for which the IC50 was > 50 µM (inactive).
In the case of `C=C1C=C(CCC(=O)O)C(=O)OC1/C=C/C=C/C` (centres undefined) it was 18.2 µM.
As for `O=C(O)c1cccc(NC(=O)C(Sc2cccc(NC(=O)c3cccc(Cl)c3)c2)c2ccccc2)c1` (centres undefined), the IC50 is 45.8 µM.
Consider `O=c1c2[nH]c3ccccc3c2ncn1Cc1ccncc1`, for which the IC50 is > 50 µM (inactive).
With `Cc1cc(=O)n2c3c(c4c(cc13)c(CO)cc(=O)n4C)OC2`, the IC50 was > 50 µM (inactive).
The same measure for `Cc1cccc(Cl)c1NC(=O)Nc1ccc(NC(=O)c2ccccc2O)cc1`: > 50 µM (inactive); for `Nc1c(C(=O)NCc2ccc3c(c2)OCO3)nnn1Cc1ccc(Br)cc1F`: > 50 µM (inactive); for `COCCn1c(=O)[nH]c2cc(C(=O)NCCNc3ccc([N+](=O)[O-])cc3C#N)ccc2c1=O`: > 50 µM (inactive).
As for `Cn1c(CCNC(=O)c2[nH]nc3c2CCc2ccccc2-3)nc2ccccc21`, the IC50 is > 50 µM (inactive).
`O=C(NCc1ccc(F)cc1)c1cccc(Nc2nc3ccccc3n3cnnc23)c1`: the IC50 was > 50 µM (inactive).
In the case of `CCOc1ccc(NC(=O)Cn2c(=O)n(CCCCCC(=O)NCc3ccc(F)cc3)c(=O)c3sccc32)cc1` it was > 50 µM (inactive); in that of `O=C(Cc1ccc(-n2c(=O)c3ccccc3n(CC(=O)Nc3ccc(Cl)cc3Cl)c2=O)cc1)NCc1ccco1`, > 50 µM (inactive).
In the case of `Cc1ccc(NC(=O)Cc2nnc3c(-c4nc(C5CC5)no4)cccn23)cc1` it was 35.5 µM.
In the case of `CCC(=O)N1c2ccccc2NC2=C(C(=O)CC(c3ccccc3OCc3ccccc3)C2)C1c1ccccc1` (centres undefined), the IC50 was > 50 µM (inactive).
Turning to `Cn1c(=O)c(C(=O)Nc2ccc(Br)cc2)nc2ccccc21`, the IC50 was > 50 µM (inactive).
The same measure for `Cc1ccc2[nH]c3c(=O)n(Cc4ccc(N(C)C)cc4)cnc3c2c1`: > 50 µM (inactive); for `Cn1c2ccccc2c(=O)c2c(=O)n(Cc3ccco3)c(-c3ccccc3F)nc21`: > 50 µM (inactive); for `COc1ccc(-c2cc(-c3ccccc3)nc(SCC(N)=O)c2C#N)cc1OC`: > 50 µM (inactive).
The same measure for `O=C(Cn1c(-c2ccccc2)ncc(C(=O)NC2CC2)c1=O)Nc1ccccc1`: > 50 µM (inactive); for `COc1ccc(Cl)cc1NC(=O)Cn1c(=O)n(CCCCC(=O)NCCc2ccccc2)c(=O)c2ccccc21`: > 50 µM (inactive).
In the case of `O=C1c2c(O)ccc(O)c2C2(Oc3cccc4cccc(c34)O2)C2OC12` (centres undefined), the IC50 is > 50 µM (inactive).
The same measure for `CC(C)=CCCC1(C)C=Cc2c(O)c3c(c(CC=C(C)C)c2O1)OC12C(=CC4CC1C(C)(C)OC2(C/C=C(/C)C(=O)O)C4=O)C3=O` (centres undefined): 17.4 µM.
`COc1ccccc1-c1nc(-c2cn(-c3ccc(F)cc3)nn2)no1`: the IC50 was 43.9 µM.
On to `COC(=O)c1ccc2c(=O)n(CCCCCC(=O)NCCc3ccccc3Cl)c(=O)[nH]c2c1`, for which the IC50 was > 50 µM (inactive).
Turning to `Cc1ccc(Cn2cc(-c3noc(C(=O)Nc4cc(F)ccc4F)n3)nn2)cc1`, the IC50 is > 50 µM (inactive).
As for `Cc1nc(N2CCCC2)ncc1-c1cc(=O)[nH]c(Nc2ccc(Cl)cc2Cl)n1`, the IC50 is > 50 µM (inactive).
With `CC/C=C\C/C=C\C/C=C\CCCCCCCC(=O)O`, the IC50 is 25.6 µM.
In the case of `Cc1cc(C(=O)N2CCOCC2)c(C)n1-c1ccc(O)cc1` it was > 50 µM (inactive); in that of `Cc1ccccc1NC(=O)c1nc(-c2cn(Cc3ccc(F)cc3)nn2)no1`, > 50 µM (inactive); in that of `CCOC(=O)C1CCN(C(=O)c2ccc3c(c2)NC(=O)C2CCCN32)CC1` (centres undefined), > 50 µM (inactive).
With `COc1cc2c(=O)n(CCC(=O)NC3CCCC3)c(=O)n(CC(=O)Nc3cccc(Cl)c3)c2cc1OC`, the IC50 was > 50 µM (inactive).
